Key:
Coagulation factor X [1] = target: T1, Coagulation factor X (Homo sapiens, UniProt P00742); test: Inhibitory activity against factor Xa
Prothrombin = Prothrombin (Homo sapiens, UniProt P00734); test: Inhibitory activity against Factor IIa (serine protease) was determined
Serine protease 1 = Serine protease 1 (Homo sapiens, UniProt P07477); test: Inhibitory activity against trypsin was determined
Coagulation factor X [2] = target: T1, Coagulation factor X; test: Inhibitory activity against Coagulation factor Xa (serine protease) was determined
Coagulation factor X [3] = target: T1, Coagulation factor X; test: Inhibitory activity against factor Xa was determined
Coagulation factor X [4] = target: T1, Coagulation factor X; test: Inhibitory activity against factor Xa, activity expressed as Ki nM

T1 sequence (P00742 41-179 limits assumed): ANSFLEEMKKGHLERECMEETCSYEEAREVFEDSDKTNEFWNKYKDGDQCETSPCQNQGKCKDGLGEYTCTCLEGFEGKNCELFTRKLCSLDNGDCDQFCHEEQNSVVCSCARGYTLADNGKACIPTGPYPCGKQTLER
T1 sequence (P00742 235-488 limits assumed): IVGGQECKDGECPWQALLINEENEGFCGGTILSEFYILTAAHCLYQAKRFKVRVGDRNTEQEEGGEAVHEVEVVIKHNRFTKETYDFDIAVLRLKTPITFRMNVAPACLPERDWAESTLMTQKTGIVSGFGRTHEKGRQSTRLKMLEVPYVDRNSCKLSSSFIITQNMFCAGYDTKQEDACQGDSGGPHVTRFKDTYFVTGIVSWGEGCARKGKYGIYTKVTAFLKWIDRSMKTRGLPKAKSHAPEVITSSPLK
Sequence of Serine protease 1 (P07477 whole entry): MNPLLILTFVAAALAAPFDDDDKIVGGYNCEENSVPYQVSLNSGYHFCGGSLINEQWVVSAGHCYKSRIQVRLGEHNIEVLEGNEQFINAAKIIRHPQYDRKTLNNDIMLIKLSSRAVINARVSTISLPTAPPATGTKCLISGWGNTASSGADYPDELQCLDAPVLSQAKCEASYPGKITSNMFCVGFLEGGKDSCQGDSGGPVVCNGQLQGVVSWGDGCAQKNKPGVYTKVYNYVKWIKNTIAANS

| Compound | IC50 (Coagulation factor X [1]) [nM] | further results |
| --- | --- | --- |
| CC(=CC(=O)Nc1ccc(-c2ccccc2S(N)(=O)=O)cc1)c1cccc(C(=N)N)c1 | 4 | – |
| N=C(N)c1cccc(/C(=C\C(=O)Nc2ccc(-c3ccccc3S(N)(=O)=O)cc2)c2ccco2)c1 | 184 | – |
| C/C(=C(\F)C(=O)Nc1ccc(-c2ccccc2S(N)(=O)=O)cc1F)c1cc(C(=N)N)ccc1[N+](=O)[O-] | 15 | – |
| N=C(N)c1ccc(F)c(C=CC(=O)Nc2ccc(-c3ccccc3S(N)(=O)=O)cc2)c1 | 18 | – |
| CC(=Cc1cccc(C(=N)N)c1)C(=O)Nc1ccc(-c2ccccc2S(N)(=O)=O)cc1 | 362 | – |
| CC(=C(F)C(=O)Nc1ccc(-c2ccccc2S(N)(=O)=O)cc1)c1cccc(C(=N)N)c1 | 1 | IC50 (Prothrombin): 3190 nM; IC50 (Serine protease 1): 259 nM |
| C/C(=C(\F)C(=O)Nc1ccc(-c2ccccc2S(N)(=O)=O)cc1F)c1cccc(C(=N)N)c1 | 0.2 | IC50 (Prothrombin): 2200 nM; IC50 (Serine protease 1): 194 nM |
| COc1ccc(C(=N)N)cc1C=CC(=O)Nc1ccc(-c2ccccc2S(N)(=O)=O)cc1 | 215 | – |
| CC(=C(F)C(=O)Nc1ccc(-c2ccccc2S(N)(=O)=O)cc1Br)c1cccc(C(=N)N)c1 | 0.5 | IC50 (Prothrombin): 503 nM; IC50 (Serine protease 1): 189 nM |
| N=C(N)c1cccc(C=C(C(=O)Nc2ccc(-c3ccccc3S(N)(=O)=O)cc2)c2ccncc2)c1 | 628 | – |
| CC(=C(F)C(=O)Nc1ccc(-c2ccccc2S(N)(=O)=O)cc1Br)c1ccc(F)c(C(=N)N)c1 | 0.75 | – |
| CS(=O)(=O)CC(=C(F)C(=O)Nc1ccc(-c2ccccc2S(N)(=O)=O)cc1)c1cccc(C(=N)N)c1 | 10 | – |
| N=C(N)c1cccc(C=CC(=O)Nc2ccc(-c3ccccc3S(N)(=O)=O)cc2)c1 [listing 1 of 2 here] | 17 | – |
| CC(C)C(=CC(=O)Nc1ccc(-c2ccccc2S(N)(=O)=O)cc1)c1cccc(C(=N)N)c1 | 35 | – |
| N=C(N)c1cccc(C(=CC(=O)Nc2ccc(-c3ccccc3S(N)(=O)=O)cc2)Cn2cnnn2)c1 | 53 | – |
| CC(=C(F)C(=O)Nc1ccc(-c2ccccc2S(N)(=O)=O)cc1F)c1ccc(F)c(C(=N)N)c1 | 1.5 | – |
| N=C(N)c1cccc(C(=CC(=O)Nc2ccc(-c3ccccc3S(N)(=O)=O)cc2)Cc2cc[nH]n2)c1 | 48 | – |
| CCSCC(=C(F)C(=O)Nc1ccc(-c2ccccc2S(N)(=O)=O)cc1)c1cccc(C(=N)N)c1 | 13 | – |
| N=C(N)c1cccc(C(=C(F)C(=O)Nc2ccc(-c3ccccc3S(N)(=O)=O)cc2)C(F)(F)F)c1 | 3 | – |

| Compound | IC50 (Coagulation factor X [1]) [nM] | further results |
| --- | --- | --- |
| N=C(N)c1cc(C=CC(=O)Nc2ccc(-c3ccccc3S(N)(=O)=O)cc2)ccc1F | 99 | – |
| CCC(=CC(=O)Nc1ccc(-c2ccccc2S(N)(=O)=O)cc1)c1cccc(C(=N)N)c1 | 7 | – |
| N=C(N)c1cccc(C(=CC(=O)Nc2ccc(-c3ccccc3S(N)(=O)=O)cc2)C(F)(F)F)c1 | 10 | – |
| N=C(N)c1cccc(C=CC(=O)Nc2ccc(-c3ccccc3S(N)(=O)=O)cc2)c1 [listing 2 of 2 here] | – | IC50 (Coagulation factor X [2]): 3120 nM |
| CC(C)CC(=CC(=O)Nc1ccc(-c2ccccc2S(N)(=O)=O)cc1)c1cccc(C(=N)N)c1 | 5 | – |
| CC(=C(F)C(=O)Nc1ccc(-c2ccccc2S(N)(=O)=O)cc1Cl)c1cccc(C(=N)N)c1 | 0.5 | IC50 (Prothrombin): 650 nM; IC50 (Serine protease 1): 188 nM |
| COC(=O)C(=Cc1cccc(C(=N)N)c1)C(=O)Nc1ccc(-c2ccccc2S(N)(=O)=O)cc1 | – | IC50 (Coagulation factor X [3]): 759 nM |
| CC(=C(F)C(=O)Nc1ccc(-c2ccccc2S(N)(=O)=O)cc1Cl)c1ccc(F)c(C(=N)N)c1 | 0.74 | Ki (Coagulation factor X [4]): 0.18 nM |
| CC(=C(CC(=O)O)C(=O)Nc1ccc(-c2ccccc2S(N)(=O)=O)cc1)c1cccc(C(=N)N)c1 | 234 | – |
| COCC(=CC(=O)Nc1ccc(-c2ccccc2S(N)(=O)=O)cc1)c1cccc(C(=N)N)c1 | 7 | – |
| N=C(N)c1cccc(C=C(C(=O)Nc2ccc(-c3ccccc3S(N)(=O)=O)cc2)c2ccccn2)c1 | 664 | – |
| CN(C)CC(=C(F)C(=O)Nc1ccc(-c2ccccc2S(N)(=O)=O)cc1F)c1cccc(C(=N)N)c1 | 191 | – |
| N=C(N)c1cccc(C(CO)=C(F)C(=O)Nc2ccc(-c3ccccc3S(N)(=O)=O)cc2)c1 | 3.7 | – |
| CC(=C(F)C(=O)Nc1ccc(-c2ccccc2S(N)(=O)=O)cc1)c1ccc(F)c(C(=N)N)c1 | 3.6 | – |
| C/C(=C(\F)C(=O)Nc1ccc(-c2ccccc2S(N)(=O)=O)cc1F)c1cc(C(=N)N)ccc1N | 2.6 | – |
| CC(=C(CC(N)=O)C(=O)Nc1ccc(-c2ccccc2S(N)(=O)=O)cc1)c1cccc(C(=N)N)c1 | 99 | – |
| COCCOc1ccc(C(=N)N)cc1C=CC(=O)Nc1ccc(-c2ccccc2S(N)(=O)=O)cc1 | 9 | – |
| N=C(N)c1cccc(C(=CC(=O)Nc2ccc(-c3ccccc3S(N)(=O)=O)cc2)Cn2ncnn2)c1 | 245 | – |
| COc1ccc(C=CC(=O)Nc2ccc(-c3ccccc3S(N)(=O)=O)cc2)cc1C(=N)N | 6470 | – |
